Like-named read-outs stand apart in the source and are kept apart here.
Assays:
[1] = test system: carbachol- or histamine-induced bronchoconstriction; assay: Bronchodilator Test Method I, anesthetized dog, intravenous activity; assay type: in vivo; details: Canis lupus familiaris, read-out: Bronchodilatation; for inhibition in vivo at 0.005 mg/kg: 5 mcg/kg i.v.; for inhibition in vivo at 0.02 mg/kg: 20 mcg/kg i.v.; for inhibition in vivo at 0.04 mg/kg: 40 mcg/kg i.v.; for inhibition in vivo at 0.008 mg/kg: 8 mcg/kg i.v.; for inhibition in vivo at 0.032 mg/kg: 32 mcg/kg i.v.; for inhibition in vivo at 0.128 mg/kg: 128 mcg/kg i.v.
In short: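 Pentobarbital-anesthetized (30 mg/kg i.v.), open-chest, artificially ventilated dogs were given i.v. carbachol (4-6 µg/kg) or histamine diphosphate (35-45 µg/kg). Test compound was given i.v. mixed with, after, or 1-10 min before the constrictor.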

[2] = test system: carbachol- or histamine-induced bronchoconstriction; assay: Bronchodilator Test Method I, anesthetized dog, intraduodenal activity; assay type: in vivo; details: Canis lupus familiaris, read-out: Bronchodilation; for inhibition in vivo at 0.02 mg/kg: 20 mcg/kg (salt) intraduodenal; for inhibition in vivo at 0.08 mg/kg: 80 mcg/kg (salt) intraduodenal; for inhibition in vivo at 0.16 mg/kg: 160 mcg/kg (salt) intraduodenal; for inhibition in vivo at 0.032 mg/kg: 32 mcg/kg (salt) intraduodenal; for inhibition in vivo at 0.128 mg/kg: 128 mcg/kg (salt) intraduodenal
In short: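 Pentobarbital-anesthetized (30 mg/kg i.v.) open-chest dogs of 9-18 kg, artificially ventilated; airway pressure recorded via tracheal cannula transducer. Test solution injected intraduodenally; from 5 min, i.v. carbachol (4-6 μg/kg) or histamine diphosphate (35-45 μg/kg) challenges every 30-60 min gauged degree and duration of bronchodilation.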

[3] = test system: guinea pig bronchioles constricted by carbachol; assay: Bronchodilator Test Method II, in vitro perfused guinea pig lung; details: for ED50: carbachol (Doryl) 1:5 million
Protocol: In this method bronchodilator activity in vitro was determined by testing the effect of graded doses of the test compounds on guinea pig bronchioles constricted by carbachol, using the technique reported by Sollman and von Oettingen, Proc. Soc, Exp. Biol. Med., 25,692 (1928) as modified by Tainter, Pedden, and James, J. Pharm. Exp. Ther., 51, 371 (1934) and by Luduena, von Euler, Tullar, and Lands, Arch. intern. Pharmacol., III, 392 (1957).

heart rate = assay: Cardiovascular studies: effect on the heart rate in the anesthetized dog; assay type: in vivo
In short: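 Anesthetized dogs, mostly spontaneously breathing, some open-chest, given rapid intravenous injections. Heart rate by electrocardiograph with blood pressure recorded simultaneously, every 0.5-1 minute for 10 minutes then every 2-5 minutes until recovery; several doses or compounds sometimes tested alternately in one dog.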

diastolic blood pressure = assay: Effect on diastolic blood pressure in the anesthetized dog; assay type: in vivo
Protocol: The effect of a rapid intravenous injection on the heart rate the heart rate was conducted in anesthetized dogs under normal respiration. A few open-chest dogs were also tested. Increase in heart rate was measured by using an electrocardiograph attached to the dog. Readings were taken every 0.5-1 minute for the first 10 minutes and every 2-5 minutes thereafter until recovery. In some cases, several doses and more than one compound were tested alternately in the same dog. The blood pressure effect was simultaneously recorded.

With `COc1ccc(C(=O)Oc2ccc(C(O)CNC(C)(C)C)cc2OC(C)=O)cc1` (stereo not drawn) [Example 145, 3-acetoxy-4-(p-anisoyloxy)-alpha-(tert-butylaminomethyl)benzyl alcohol methanesulfonate] the inhibition in vivo at 0.005 mg/kg ([1]; 5 min, 5 min) was 65%, the inhibition in vivo at 0.02 mg/kg ([1]; 5 min, 5 min) was 87% and the inhibition in vivo at 0.04 mg/kg ([1]; 5 min, 5 min) was 98%. For the same molecule, the inhibition in vivo at 0.005 mg/kg ([1]; 0.5 h, 30 min) was 30%, the inhibition in vivo at 0.02 mg/kg ([1]; 0.5 h, 30 min) was 45% and the inhibition in vivo at 0.04 mg/kg ([1]; 0.5 h, 30 min) was 70%. For the same molecule, the inhibition in vivo at 0.005 mg/kg ([1]; 1 h, 60 min) was 24%, the inhibition in vivo at 0.02 mg/kg ([1]; 1 h, 60 min) was 35% and the inhibition in vivo at 0.04 mg/kg ([1]; 1 h, 60 min) was 68%. For the same molecule, the inhibition in vivo at 0.005 mg/kg ([1]; 2 h, 120 min) was 22%, the inhibition in vivo at 0.02 mg/kg ([1]; 2 h, 120 min) was 27% and the inhibition in vivo at 0.04 mg/kg ([1]; 2 h, 120 min) was 42%. For the same molecule, the inhibition in vivo at 0.04 mg/kg ([1]; 3 h, 180 min) was 38%, the inhibition in vivo at 0.04 mg/kg ([1]; 4 h, 240 min) was 24% and the inhibition in vivo at 0.02 mg/kg ([2]; 5 min, 5 min) was 33%. For the same molecule, the inhibition in vivo at 0.08 mg/kg ([2]; 5 min, 5 min) was 53%, the inhibition in vivo at 0.16 mg/kg ([2]; 5 min, 5 min) was 82% and the inhibition in vivo at 0.02 mg/kg ([2]; 0.5 h, 30 min) was 32%. It also gave an inhibition in vivo at 0.08 mg/kg ([2]; 0.5 h, 30 min) of 48%, an inhibition in vivo at 0.16 mg/kg ([2]; 0.5 h, 30 min) of 81% and an inhibition in vivo at 0.02 mg/kg ([2]; 1 h, 60 min) of 32%. For the same molecule, the inhibition in vivo at 0.08 mg/kg ([2]; 1 h, 60 min) was 45%, the inhibition in vivo at 0.16 mg/kg ([2]; 1 h, 60 min) was 81% and the inhibition in vivo at 0.02 mg/kg ([2]; 2 h, 120 min) was 33%. The inhibition in vivo at 0.08 mg/kg ([2]; 2 h, 120 min) was 49%, the inhibition in vivo at 0.16 mg/kg ([2]; 2 h, 120 min) was 63% and the inhibition in vivo at 0.02 mg/kg ([2]; 3 h, 180 min) was 29%. For the same molecule, the inhibition in vivo at 0.08 mg/kg ([2]; 3 h, 180 min) was 32%, the inhibition in vivo at 0.16 mg/kg ([2]; 3 h, 180 min) was 48% and the inhibition in vivo at 0.02 mg/kg ([2]; 4 h, 240 min) was 25%. It also gave an inhibition in vivo at 0.08 mg/kg ([2]; 4 h, 240 min) of 30%, an inhibition in vivo at 0.16 mg/kg ([2]; 4 h, 240 min) of 32% and an inhibition in vivo at 0.02 mg/kg ([2]; 5 h, 300 min) of 23%. The inhibition in vivo at 0.16 mg/kg ([2]; 5 h, 300 min) was 37%, the ED50 [3] was 0.25 µg (base) and the “Duration, Mean” value ([3]; dose 1 mcg (base)) was greater than 72 min. For the same molecule, the “Mean Maximal Increase in the Heart Rate” value (heart rate; 1.25 mcg/kg (salt) i.v.) was 9%, the “Mean Maximal Increase in the Heart Rate” value (heart rate; 5.0 mcg/kg (salt) i.v.) was 13% and the “Mean Maximal Increase in the Heart Rate” value (heart rate; 20 mcg/kg (salt) i.v.) was 27%. For the same molecule, the “Mean Decrease in Diastolic Blood Pressure” value (“Mean Decrease” for short) (diastolic blood pressure; 1.25 meg/kg (salt) i.v.) was 7%, the “Mean Decrease” value (diastolic blood pressure; 5.0 meg/kg (salt) i.v.) was 12% and the “Mean Decrease” value (diastolic blood pressure; 20 meg/kg (salt) i.v.) was 20%.

Work on `COc1ccc(C(=O)Oc2ccc(C(O)CNC(C)(C)C)cc2COC(C)=O)cc1` (stereo not drawn) [Example 151, 3-(acetoxymethyl)-4-(p-anisoyloxy)-alpha-(tert-butylaminomethyl)benzyl alcohol] yielded an inhibition in vivo at 0.008 mg/kg ([1]; 5 min, 5 min) of 43%, an inhibition in vivo at 0.032 mg/kg ([1]; 5 min, 5 min) of 54% and an inhibition in vivo at 0.128 mg/kg ([1]; 5 min, 5 min) of 85%. For the same molecule, the inhibition in vivo at 0.008 mg/kg ([1]; 0.5 h, 30 min) was 33%, the inhibition in vivo at 0.032 mg/kg ([1]; 0.5 h, 30 min) was 46% and the inhibition in vivo at 0.128 mg/kg ([1]; 0.5 h, 30 min) was 81%. For the same molecule, the inhibition in vivo at 0.008 mg/kg ([1]; 1 h, 60 min) was 50%, the inhibition in vivo at 0.032 mg/kg ([1]; 1 h, 60 min) was 41% and the inhibition in vivo at 0.128 mg/kg ([1]; 1 h, 60 min) was 81%. It also gave an inhibition in vivo at 0.008 mg/kg ([1]; 2 h, 120 min) of 43%, an inhibition in vivo at 0.032 mg/kg ([1]; 2 h, 120 min) of 54% and an inhibition in vivo at 0.128 mg/kg ([1]; 2 h, 120 min) of 73%. For the same molecule, the inhibition in vivo at 0.008 mg/kg ([1]; 3 h, 180 min) was 30%, the inhibition in vivo at 0.032 mg/kg ([1]; 3 h, 180 min) was 21% and the inhibition in vivo at 0.128 mg/kg ([1]; 3 h, 180 min) was 69%. The inhibition in vivo at 0.032 mg/kg ([1]; 4 h, 240 min) was 18%, the inhibition in vivo at 0.128 mg/kg ([1]; 4 h, 240 min) was 64% and the inhibition in vivo at 0.008 mg/kg ([1]; 4.5 h, 270 min) was 20%. For the same molecule, the inhibition in vivo at 0.128 mg/kg ([1]; 4.5 h, 270 min) was 52%, the inhibition in vivo at 0.032 mg/kg ([2]; 5 min, 5 min) was 24% and the inhibition in vivo at 0.128 mg/kg ([2]; 5 min, 5 min) was 54%. For the same molecule, the inhibition in vivo at 0.032 mg/kg ([2]; 0.5 h, 30 min) was 40%, the inhibition in vivo at 0.128 mg/kg ([2]; 0.5 h, 30 min) was 63% and the inhibition in vivo at 0.032 mg/kg ([2]; 1 h, 60 min) was 36%. For the same molecule, the inhibition in vivo at 0.128 mg/kg ([2]; 1 h, 60 min) was 66%, the inhibition in vivo at 0.032 mg/kg ([2]; 2 h, 120 min) was 36% and the inhibition in vivo at 0.128 mg/kg ([2]; 2 h, 120 min) was 66%. It also gave an inhibition in vivo at 0.032 mg/kg ([2]; 3 h, 180 min) of 28%, an inhibition in vivo at 0.128 mg/kg ([2]; 3 h, 180 min) of 66% and an inhibition in vivo at 0.032 mg/kg ([2]; 5 h, 300 min) of 20%. For the same molecule, the inhibition in vivo at 0.128 mg/kg ([2]; 5 h, 300 min) was 43%, the ED50 [3] was 5.1 µg (base) and the “Duration, Mean” value ([3]; dose 10 mcg (base)) was 67.3 ± 33.7 min. The “Mean Maximal Increase in the Heart Rate” value (heart rate; 32 mcg/kg (salt) i.v.) was 18 Beats/Minute, the “Mean Maximal Increase in the Heart Rate” value (heart rate; 128 mcg/kg (salt) i.v.) was 24 Beats/Minute and the “Mean Decrease” value (diastolic blood pressure; 32 meg/kg (salt) i.v.) was 10%. The “Mean Decrease” value (diastolic blood pressure; 128 meg/kg (salt) i.v.) was 10%.
